Results reported in patent US20230089368A1, “POLYAROMATIC UREA DERIVATIVES AND THEIR USE IN THE TREATMENT OF MUSCLE DISEASES” (ANAGENESIS BIOTECHNOLOGIES S.A.S., priority 2019, published 2023).

Legend:
[1] = test system: muscle progenitors (hMP) from DMD hiPSC or WT hiPSC; test: Myotube assay: myogenic activity (total myotube area per well); assay type: cell-based, human; conditions: for Emax: Homo sapiens, 72 h, myotube assay, compounds incubated 3 days, read-out: MA (normalized Myotube Area, efficacy)
Method in brief: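 DMD or WT hiPSC-derived muscle progenitors plated on collagen I in K5 medium with 5 μM Y-27632, treated with compound (1.5 nM–30 μM) for 3 days at 37° C. Cells were fixed, stained for alpha-actinin and imaged for total myotube area per well. EC50 and normalized myotube area (MA) taken from duplicate-averaged data.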

[2] = test system: satellite-like cells (Pax7-positive cells) in hMP; test: Myotube assay: Pax7-positive (satellite-like) cell quantification; assay type: cell-based, human; parameters: key to Pax7% (pool of Pax7-positive cells) / Pax7: −: Depletes the pool of cells, while positively affects the myotubes; +: Maintains or increases the pool of cells, with at least 1 of the highest concentration known to be cytotoxic; ++: Maintains or increases the pool of cells, without any toxicity; conditions: for Pax7% (pool of Pax7-positive cells): myotube assay, compounds incubated 3 days
Method in brief: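 DMD hiPSC-derived muscle progenitors (hMP) proliferated 4 days, then plated on collagen I in K5 medium with 5 μM Y-27632. Compound added at 1.5 nM–30 μM for 3 days at 37° C, then cells fixed and immunostained. Pax7-positive cells counted as percentage of total nuclei, duplicates averaged.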

EC50 ([1]; comparative compounds, same assay, NA: non active, read-out: EC50) [µM]	SMILES	Emax [1] [%]	Pax7% (pool of Pax7-positive cells) [2]	MA ([1]; comparative compounds, same assay, NA: non active)	Pax7 ([2]; comparative compounds, same assay)
	CC(C)(C)c1cc(NC(=O)Nc2ccc(Oc3ccnc4[nH]c(=O)cnc34)cc2F)sn1 [(q), 1-(3-(tert-butyl)isothiazol-5-yl)-3-(2-fluoro-4-((3-oxo-3,4-dihydropyrido[2,3-b]pyrazin-8-yl)oxy)phenyl)urea]	50 to 75	++		
	CC(C)(C)c1nnc(NC(=O)Nc2ccc(Oc3ccnc4[nH]c(=O)cnc34)cc2F)s1 [(r), 1-(5-(tert-butyl)-1,3,4-thiadiazol-2-yl)-3-(2-fluoro-4-((3-oxo-3,4-dihydropyrido[2,3-b]pyrazin-8-yl)oxy)phenyl)urea]	≥ 75	++		
	CC(C)(C)c1cc(NC(=O)Nc2ccc(Oc3ccnc4[nH]c(=O)cnc34)cc2)n(-c2ccccc2)n1 [(s), 1-(3-(tert-butyl)-1-phenyl-1H-pyrazol-5-yl)-3-(4-((3-oxo-3,4-dihydropyrido[2,3-b]pyrazin-8-yl)oxy)phenyl)urea]	50 to 75	+		
	CC(C)(C)c1cc(NC(=O)Nc2ccc(Oc3ccnc4[nH]c(=O)cnc34)nc2)n(-c2ccccc2)n1 [(t), 1-(3-(tert-butyl)-1-phenyl-1H-pyrazol-5-yl)-3-(6-((3-oxo-3,4-dihydropyrido[2,3-b]pyrazin-8-yl)oxy)pyridin-3-yl)urea]	25 to 50	+		
	CC(C)(C)c1cc(NC(=O)Nc2ccc(Oc3ccnc4[nH]c(=O)cnc34)cn2)n(-c2ccccc2)n1 [(u), 1-(3-(tert-butyl)-1-phenyl-1H-pyrazol-5-yl)-3-(5-((3-oxo-3,4-dihydropyrido[2,3-b]pyrazin-8-yl)oxy)pyridin-2-yl)urea]	25 to 50	++		
	CC(C)(C)c1cc(NC(=O)Nc2ccc(Oc3ccnc4[nH]c(=O)cnc34)cc2C(F)(F)F)n(-c2ccccc2)n1 [(v), 1-(3-(tert-butyl)-1-phenyl-1H-pyrazol-5-yl)-3-(4-((3-oxo-3,4-dihydropyrido[2,3-b]pyrazin-8-yl)oxy)-2-(trifluoromethyl)phenyl)urea]	≥ 75	++		
	Cc1nc2c(Oc3ccc(NC(=O)Nc4cc(C(C)(C)C)nn4-c4ccccc4)c(F)c3)ccnc2c(=O)[nH]1 [(w), 1-(3-(tert-butyl)-1-phenyl-1H-pyrazol-5-yl)-3-(2-fluoro-4-((2-methyl-4-oxo-3,4-dihydropyrido[3,2-d]pyrimidin-8-yl)oxy)phenyl)urea]	50 to 75	++		
	O=C(Nc1ccc(Oc2ccnc3[nH]c(=O)cnc23)cc1F)Nc1c2c(nn1-c1ccccc1)CCC2 [(x), 1-(2-fluoro-4-((3-oxo-3,4-dihydropyrido[2,3-b]pyrazin-8-yl)oxy)phenyl)-3-(2-phenyl-2,4,5,6-tetrahydrocyclopenta[c]pyrazol-3-yl)urea]	25 to 50	++		
	O=C(Nc1ccc(Oc2ccnc3[nH]c(=O)cnc23)cc1F)Nc1c(-c2ccccc2)nn2c1CCC2 [(y), 1-(2-fluoro-4-((3-oxo-3,4-dihydropyrido[2,3-b]pyrazin-8-yl)oxy)phenyl)-3-(2-phenyl-5,6-dihydro-4H-pyrrolo[1,2-b]pyrazol-3-yl)urea]	25 to 50	++		
	CSc1cc(Oc2ccnc3[nH]c(=O)cnc23)ccc1NC(=O)Nc1nnc(C(C)(C)C)s1 [(z), 1-(5-(tert-butyl)-1,3,4-thiadiazol-2-yl)-3-(2-(methylthio)-4-((3-oxo-3,4-dihydropyrido[2,3-b]pyrazin-8-yl)oxy)phenyl)urea]	≥ 75	++		
0.5 to 1	CC(C)(C)c1cc(NC(=O)Nc2ccc(Oc3ccnc4[nH]c(=O)cnc34)cc2F)n(-c2ccccc2)n1 [CCT196969]			++ (50%≤MA<75%)	+
